Measured values: ChEMBL document CHEMBL1148041, “New fatty acid esters of drimane sesquiterpenes from Lactarius uvidus” (J Nat Prod, 1994)

How the values were obtained:
HL-60 [1] = assay: Cytotoxicity against human HL60 cells assessed as inhibition of [3H]thymidine incorporation at 50 gamma/ml; format: functional
HL-60 [2] = assay: Cytotoxicity against human HL60 cells assessed as inhibition of [3H]thymidine incorporation at 0.05 gamma/ml; format: functional
Artemia salina = assay: Toxicity in Artemia salina; format: organism-based; settings: in vivo

Compound	inhibition (INH) (HL-60 [1]) [%]	inhibition (INH) (HL-60 [2]) [%]	LC50 (Artemia salina) [ppm]
CC1(C)[C@@H](O)CC[C@]2(C)[C@@H](CO)[C@@]3(C)O[C@H]3C(=O)[C@@H]12 [UVIDIN B]	61	0	–
CC1(C)CCC[C@]2(C)[C@@H](CO)[C@@]3(C)O[C@H]3C(=O)[C@@H]12 [UVIDIN A]	97	21	48.8
